Reference: the supplement of paper PMC10307832

Key:
Test in all cases: relative viability (nuclei count vs DMSO), 5 days (fraction); higher = more cells survive
AZ505 + Vorinostat = compound: C1CCC(CC1)N(CCNCCC2=C3C(=C(C=C2)O)NC(=O)CO3)C(=O)CCNCCC4=CC(=C(C=C4)Cl)Cl [AZ505] + O=C(CCCCCCC(=O)Nc1ccccc1)NO [Vorinostat] (partner 1 µM)
How it was run: (§1)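 Lung cancer cell lines, seeded in 1536-well plates, were treated the following day by pin tool with a single drug or with five library-drug doses (not always all listed) in √10 steps on top of a fixed anchor-drug dose. Cells were fixed and nuclei stained in one step after 5 days, and nuclei were counted. Relative viability is the nuclei count for treated wells divided by that for vehicle wells, reported as medians of duplicate plates.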

Dactolisib + Luminespib = compound: Cn1c(=O)n(-c2ccc(C(C)(C)C#N)cc2)c2c3cc(-c4cnc5ccccc5c4)ccc3ncc21 [Dactolisib] + CCNC(=O)c1noc(-c2cc(C(C)C)c(O)cc2O)c1-c1ccc(CN2CCOCC2)cc1 [Luminespib] (partner 0.01 µM)
How it was run: as §1

Dactolisib + Tozasertib = compound: Cn1c(=O)n(-c2ccc(C(C)(C)C#N)cc2)c2c3cc(-c4cnc5ccccc5c4)ccc3ncc21 [Dactolisib] + Cc1cc(Nc2cc(N3CCN(C)CC3)nc(Sc3ccc(NC(=O)C4CC4)cc3)n2)n[nH]1 [Tozasertib] (partner 0.1 µM)
How it was run: as §1

Dactolisib + Olaparib = compound: Cn1c(=O)n(-c2ccc(C(C)(C)C#N)cc2)c2c3cc(-c4cnc5ccccc5c4)ccc3ncc21 [Dactolisib] + O=C(c1cc(Cc2n[nH]c(=O)c3ccccc23)ccc1F)N1CCN(C(=O)C2CC2)CC1 [Olaparib] (partner 8 µM)
How it was run: as §1

Cell Line | relative viability (AZ505 + Vorinostat; first compound 0.08 µM) | relative viability (AZ505 + Vorinostat; first compound 0.253 µM) | relative viability (AZ505 + Vorinostat; first compound 0.8 µM) | relative viability (AZ505 + Vorinostat; first compound 2.53 µM) | relative viability (AZ505 + Vorinostat; first compound 8 µM) | relative viability (Dactolisib + Luminespib; first compound 0.002 µM) | relative viability (Dactolisib + Luminespib; first compound 0.006325 µM) | relative viability (Dactolisib + Luminespib; first compound 0.02 µM) | relative viability (Dactolisib + Luminespib; first compound 0.06325 µM) | relative viability (Dactolisib + Luminespib; first compound 0.2 µM) | relative viability (Dactolisib + Tozasertib; first compound 0.002 µM) | relative viability (Dactolisib + Tozasertib; first compound 0.006325 µM) | relative viability (Dactolisib + Tozasertib; first compound 0.02 µM) | relative viability (Dactolisib + Tozasertib; first compound 0.06325 µM) | relative viability (Dactolisib + Tozasertib; first compound 0.2 µM) | relative viability (Dactolisib + Olaparib; first compound 0.002 µM) | relative viability (Dactolisib + Olaparib; first compound 0.006325 µM) | relative viability (Dactolisib + Olaparib; first compound 0.02 µM) | relative viability (Dactolisib + Olaparib; first compound 0.06325 µM) | relative viability (Dactolisib + Olaparib; first compound 0.2 µM)
NCI-H1651 | 0.443 | 0.606 | 0.585 | 0.607 | 0.568 | 1.13 | 0.818 | 0.863 | 0.309 | 0.321 | 0.693 | 0.677 | 0.564 | 0.475 | 0.286 | 0.187 | 0.173 | 0.178 | 0.208 | 0.215
NCI-H441 | 0.786 | 0.881 | 0.735 | 0.782 | 0.876 | 0.446 | 0.331 | 0.305 | 0.285 | 0.206 | 0.831 | 0.632 | 0.522 | 0.384 | 0.284 | 0.784 | 0.571 | 0.597 | 0.248 | 0.25
LCLC-103H | 0.682 | 0.689 | 0.694 | 0.695 | 0.735 | 1.03 | 0.905 | 0.844 | 0.483 | 0.444 | 0.492 | 0.481 | 0.451 | 0.379 | 0.286 | 0.823 | 0.743 | 0.647 | 0.571 | 0.395
LCLC-97TM1 | 0.625 | 0.746 | 0.748 | – | 0.984 | 0.753 | 0.754 | 0.661 | 0.46 | 0.213 | 0.189 | 0.15 | 0.151 | 0.171 | 0.111 | 0.383 | 0.416 | 0.319 | 0.256 | 0.093
NCI-H727 | 1.11 | 1.07 | 1.2 | 1.11 | 1.3 | 0.417 | 0.419 | 0.351 | 0.436 | 0.447 | 0.585 | 0.587 | 0.561 | 0.451 | 0.407 | – | 0.79 | 0.874 | 0.699 | 0.629
NCI-H1355 | 0.53 | 0.59 | 0.585 | 0.624 | 0.62 | 0.862 | 0.705 | 0.529 | 0.276 | 0.186 | 0.625 | 0.537 | 0.447 | 0.456 | 0.177 | 0.831 | 0.684 | 0.644 | 0.443 | 0.27
HOP-62 | 0.607 | 0.605 | 0.658 | 0.628 | 0.732 | 0.983 | 0.812 | 0.888 | 0.543 | 0.561 | 0.423 | 0.383 | 0.473 | 0.306 | 0.309 | 0.378 | 0.464 | 0.542 | 0.298 | 0.36
NCI-H2085 | 0.732 | 0.721 | 0.675 | 0.802 | 0.823 | 0.387 | 0.388 | 0.374 | 0.208 | 0.239 | 0.852 | 0.776 | 0.649 | 0.502 | 0.347 | 0.887 | 0.778 | 0.689 | 0.513 | 0.359
SW 900 | 0.536 | 0.303 | 0.43 | 0.675 | 0.678 | 0.17 | 0.2 | 0.157 | 0.174 | 0.169 | 0.633 | 0.669 | 0.511 | 0.426 | 0.36 | 1.22 | 0.853 | 0.689 | 0.502 | 0.424
